Results: article PMC4503722, “Novel Phenotypic Outcomes Identified for a Public Collection of Approved Drugs from a Publicly Accessible Panel of Assays” (PLoS ONE, 2015)

Key:
[1] = tested on: ECFC/ADSC co-culture cell nuclei number
[2] = biological target: T1, hJAK2 (Homo sapiens, UniProt O60674); test: Cerep LANCE kinase assay hJAK2 (S1 assay 33); format: biochemical; conditions: for hJAK2 LANCE IC50/EC50: assay number 33
T1 construct: purchased Cerep (LANCE kinase assay platform, contract assay)
T1 sequence (O60674 whole entry): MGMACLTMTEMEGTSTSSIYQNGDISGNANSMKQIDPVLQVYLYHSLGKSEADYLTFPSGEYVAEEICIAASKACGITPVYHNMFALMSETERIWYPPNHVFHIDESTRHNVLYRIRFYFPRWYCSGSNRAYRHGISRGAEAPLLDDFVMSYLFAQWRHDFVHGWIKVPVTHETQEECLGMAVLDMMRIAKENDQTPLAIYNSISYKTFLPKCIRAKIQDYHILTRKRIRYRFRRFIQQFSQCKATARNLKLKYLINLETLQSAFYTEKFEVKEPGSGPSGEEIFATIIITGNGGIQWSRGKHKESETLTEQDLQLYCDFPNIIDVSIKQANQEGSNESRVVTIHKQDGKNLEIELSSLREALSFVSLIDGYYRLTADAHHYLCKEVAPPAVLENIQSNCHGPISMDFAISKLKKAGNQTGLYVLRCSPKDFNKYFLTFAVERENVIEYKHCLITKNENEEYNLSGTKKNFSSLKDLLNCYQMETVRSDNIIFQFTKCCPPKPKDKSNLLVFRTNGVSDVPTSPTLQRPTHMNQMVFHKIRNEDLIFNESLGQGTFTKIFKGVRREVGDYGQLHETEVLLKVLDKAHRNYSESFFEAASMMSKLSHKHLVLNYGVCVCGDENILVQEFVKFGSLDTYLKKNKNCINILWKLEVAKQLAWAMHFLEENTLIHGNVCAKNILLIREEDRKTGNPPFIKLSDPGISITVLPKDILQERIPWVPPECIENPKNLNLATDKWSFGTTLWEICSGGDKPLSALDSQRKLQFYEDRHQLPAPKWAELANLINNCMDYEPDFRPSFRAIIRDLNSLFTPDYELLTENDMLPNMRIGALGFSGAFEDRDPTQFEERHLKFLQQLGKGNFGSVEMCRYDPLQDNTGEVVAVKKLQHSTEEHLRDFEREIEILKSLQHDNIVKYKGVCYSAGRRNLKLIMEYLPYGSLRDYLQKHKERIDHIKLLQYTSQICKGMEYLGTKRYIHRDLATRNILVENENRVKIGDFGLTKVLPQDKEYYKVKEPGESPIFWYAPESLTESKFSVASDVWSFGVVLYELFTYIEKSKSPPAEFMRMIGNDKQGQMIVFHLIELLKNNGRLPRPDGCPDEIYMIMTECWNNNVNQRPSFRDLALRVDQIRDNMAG

[3] = biological target: T2, hGSK3b (Homo sapiens, UniProt P49841); test: Cerep LANCE kinase assay hGSK3b (S1 assay 34); format: biochemical; conditions: for hGSK3b LANCE IC50/EC50: assay number 34
T2 construct: purchased Cerep (LANCE kinase assay platform, contract assay)
T2 sequence (P49841 whole entry): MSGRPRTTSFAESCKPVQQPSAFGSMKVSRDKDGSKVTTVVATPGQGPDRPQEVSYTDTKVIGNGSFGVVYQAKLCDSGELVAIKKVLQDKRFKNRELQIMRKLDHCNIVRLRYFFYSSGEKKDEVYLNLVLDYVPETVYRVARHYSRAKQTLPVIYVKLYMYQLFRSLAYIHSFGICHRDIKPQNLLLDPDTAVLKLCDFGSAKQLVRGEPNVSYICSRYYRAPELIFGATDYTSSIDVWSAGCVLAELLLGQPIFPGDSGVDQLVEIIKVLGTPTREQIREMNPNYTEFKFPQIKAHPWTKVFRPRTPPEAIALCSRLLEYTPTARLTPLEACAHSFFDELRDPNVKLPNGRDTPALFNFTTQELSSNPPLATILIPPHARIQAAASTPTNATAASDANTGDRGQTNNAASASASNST

[4] = biological target: T3, hFLT3 (Homo sapiens, UniProt P36888); test: Cerep LANCE kinase assay hFLT3 (S1 assay 35); format: biochemical; conditions: for hFLT3 LANCE IC50/EC50: assay number 35
T3 construct: purchased Cerep (LANCE kinase assay platform, contract assay)
T3 sequence (P36888 27-993): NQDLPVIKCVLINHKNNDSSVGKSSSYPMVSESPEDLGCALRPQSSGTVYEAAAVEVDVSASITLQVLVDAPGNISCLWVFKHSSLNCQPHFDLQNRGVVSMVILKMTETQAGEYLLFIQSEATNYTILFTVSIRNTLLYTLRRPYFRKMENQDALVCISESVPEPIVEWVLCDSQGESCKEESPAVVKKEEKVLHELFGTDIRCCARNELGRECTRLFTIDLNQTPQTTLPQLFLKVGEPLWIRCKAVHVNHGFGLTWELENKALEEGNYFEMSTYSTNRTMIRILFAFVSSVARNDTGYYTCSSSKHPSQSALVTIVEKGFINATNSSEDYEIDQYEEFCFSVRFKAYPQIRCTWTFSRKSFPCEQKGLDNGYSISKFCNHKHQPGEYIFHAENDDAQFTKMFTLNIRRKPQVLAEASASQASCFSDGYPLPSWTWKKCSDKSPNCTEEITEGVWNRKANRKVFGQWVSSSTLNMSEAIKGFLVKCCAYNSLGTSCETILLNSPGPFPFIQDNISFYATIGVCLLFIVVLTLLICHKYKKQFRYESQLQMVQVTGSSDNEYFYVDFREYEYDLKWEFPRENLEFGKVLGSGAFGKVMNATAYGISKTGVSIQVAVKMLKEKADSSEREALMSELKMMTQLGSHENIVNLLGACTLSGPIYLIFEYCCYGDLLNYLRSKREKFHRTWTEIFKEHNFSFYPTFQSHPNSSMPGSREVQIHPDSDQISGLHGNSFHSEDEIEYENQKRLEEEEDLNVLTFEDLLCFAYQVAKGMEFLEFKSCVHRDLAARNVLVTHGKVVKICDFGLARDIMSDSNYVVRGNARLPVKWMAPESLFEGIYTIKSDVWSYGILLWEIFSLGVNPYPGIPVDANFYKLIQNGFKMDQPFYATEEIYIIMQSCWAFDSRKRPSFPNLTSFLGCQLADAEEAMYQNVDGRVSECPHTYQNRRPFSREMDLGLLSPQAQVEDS

[5] = tested on: HeLa cells; test: cells; format: cell-based; conditions: for Hela CellCycMod PI 2N IC50/EC50: assay number 14; for Hela CellCycMod PI S Phase IC50/EC50: assay number 15; for Hela CellCycMod PI 4N IC50/EC50: assay number 16; for Hela CellCycMod PI MI IC50/EC50: assay number 17; for Hela CellCycMod PI Cell Number IC50/EC50: assay number 18
[6] = tested on: nuclear β-catenin in C2C12 cells; test: cells; format: cell-based; conditions: concentration response; for WntCondMedia_bCatenin C2C12 IC50/EC50: assay number 5
[7] = biological target: T4, hp70S6K1 (RPS6KB1) (Homo sapiens, UniProt P23443); test: Cerep LANCE kinase assay hp70S6K1 (S1 assay 31); format: biochemical; conditions: for hp70S6K1 LANCE IC50/EC50: assay number 31
T4 construct: purchased Cerep (LANCE kinase assay platform, contract assay)
T4 sequence (P23443 whole entry): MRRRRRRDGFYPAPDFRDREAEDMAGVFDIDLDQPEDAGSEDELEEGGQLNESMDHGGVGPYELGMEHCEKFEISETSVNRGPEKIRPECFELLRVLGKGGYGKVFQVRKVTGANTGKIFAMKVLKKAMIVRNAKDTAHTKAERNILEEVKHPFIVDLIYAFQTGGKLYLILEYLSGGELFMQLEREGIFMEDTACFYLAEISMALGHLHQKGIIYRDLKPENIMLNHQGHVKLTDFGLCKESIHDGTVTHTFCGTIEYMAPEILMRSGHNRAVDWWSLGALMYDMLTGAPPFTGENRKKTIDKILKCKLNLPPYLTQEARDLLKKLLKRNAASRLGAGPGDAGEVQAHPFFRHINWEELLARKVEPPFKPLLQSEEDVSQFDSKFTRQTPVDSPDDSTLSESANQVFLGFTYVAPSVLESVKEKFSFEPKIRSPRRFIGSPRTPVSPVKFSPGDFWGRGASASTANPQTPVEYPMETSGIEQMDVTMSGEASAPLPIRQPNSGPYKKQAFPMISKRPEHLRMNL

[8] = tested on: alkaline phosphatase (ALP) activity in C2C12 cells; format: cell-based; conditions: concentration response; for WntCondMedia_Alk Phos C2C12 IC50/EC50: assay number 6
[9] = biological target: T5, hKDR (Homo sapiens, UniProt P35968); test: Cerep LANCE kinase assay hKDR (S1 assay 32); format: biochemical; conditions: for hKDR LANCE IC50/EC50: assay number 32
T5 construct: purchased Cerep (LANCE kinase assay platform, contract assay)
T5 sequence (P35968 20-1356): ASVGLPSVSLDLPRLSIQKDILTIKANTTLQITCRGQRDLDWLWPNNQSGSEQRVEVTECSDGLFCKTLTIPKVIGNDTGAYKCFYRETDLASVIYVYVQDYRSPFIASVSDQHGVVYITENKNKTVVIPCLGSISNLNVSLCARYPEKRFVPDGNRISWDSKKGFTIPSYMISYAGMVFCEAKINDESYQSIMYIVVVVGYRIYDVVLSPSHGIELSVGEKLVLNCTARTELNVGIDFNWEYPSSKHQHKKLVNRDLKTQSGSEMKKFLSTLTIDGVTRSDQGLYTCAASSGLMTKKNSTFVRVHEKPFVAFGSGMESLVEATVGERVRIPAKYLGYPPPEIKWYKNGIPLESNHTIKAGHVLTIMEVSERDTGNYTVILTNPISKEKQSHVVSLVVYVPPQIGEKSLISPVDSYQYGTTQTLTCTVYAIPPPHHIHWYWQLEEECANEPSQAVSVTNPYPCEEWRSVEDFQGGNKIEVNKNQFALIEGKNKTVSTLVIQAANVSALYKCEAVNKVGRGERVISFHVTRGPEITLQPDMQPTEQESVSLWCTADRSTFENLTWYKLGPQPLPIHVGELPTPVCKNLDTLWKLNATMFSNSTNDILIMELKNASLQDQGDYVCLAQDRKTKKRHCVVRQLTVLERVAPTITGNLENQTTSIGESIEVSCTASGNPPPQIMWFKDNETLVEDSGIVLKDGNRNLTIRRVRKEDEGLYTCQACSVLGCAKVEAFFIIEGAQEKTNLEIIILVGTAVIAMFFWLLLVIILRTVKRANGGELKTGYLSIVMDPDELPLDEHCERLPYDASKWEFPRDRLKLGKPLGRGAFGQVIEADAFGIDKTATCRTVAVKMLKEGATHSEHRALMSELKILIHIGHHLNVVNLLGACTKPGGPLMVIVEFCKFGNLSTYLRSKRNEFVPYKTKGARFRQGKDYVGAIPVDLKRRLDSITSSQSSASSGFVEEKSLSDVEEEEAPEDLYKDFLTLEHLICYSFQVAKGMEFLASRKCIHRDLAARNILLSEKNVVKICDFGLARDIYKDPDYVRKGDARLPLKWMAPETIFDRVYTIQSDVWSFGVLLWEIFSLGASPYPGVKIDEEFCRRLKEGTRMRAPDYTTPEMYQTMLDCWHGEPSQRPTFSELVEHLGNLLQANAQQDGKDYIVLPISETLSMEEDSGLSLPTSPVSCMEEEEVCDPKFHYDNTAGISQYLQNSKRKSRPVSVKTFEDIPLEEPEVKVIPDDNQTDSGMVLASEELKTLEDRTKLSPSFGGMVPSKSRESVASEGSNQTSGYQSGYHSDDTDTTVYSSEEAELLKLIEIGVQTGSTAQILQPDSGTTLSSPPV

[10] = tested on: endothelial tube formation in co-cultures of ECFCs and ADSCs treated with VEGF; test: cells; format: cell-based, human

Row | Structure (SMILES) | IC50/EC50, VEGF_ADSC\ECFC Angio Hoechst NucArea (assay number 3) [1] | IC50/EC50, hJAK2 LANCE (assay number 33) [2] | IC50/EC50, hGSK3b LANCE (assay number 34) [3] | IC50/EC50, hFLT3 LANCE (assay number 35) [4] | IC50/EC50, Hela CellCycMod PI 2N (assay number 14) [5] | IC50/EC50, Hela CellCycMod PI 4N (assay number 16) [5] | IC50/EC50, Hela CellCycMod PI MI (assay number 17) [5] | VEGF_ADSC\ECFC Angio Hoechst NucArea IC50/EC50 [1] | hJAK2 LANCE IC50/EC50 [2] | hGSK3b LANCE IC50/EC50 [3] | hFLT3 LANCE IC50/EC50 [4] | Hela CellCycMod PI 2N IC50/EC50 [5] | Hela CellCycMod PI 4N IC50/EC50 [5] | Hela CellCycMod PI MI IC50/EC50 [5] | Hela CellCycMod PI Cell Number IC50/EC50 [5] | WntCondMedia_bCatenin C2C12 IC50/EC50 [6] | hp70S6K1 LANCE IC50/EC50 [7] | WntCondMedia_Alk Phos C2C12 IC50/EC50 [8] | hKDR LANCE IC50/EC50 [9] | VEGF_ADSC\ECFC Angio CD31 TubeArea IC50/EC50 [10] | further results
1 | COC(=O)Nc1nc2ccc(C(=O)c3cccs3)cc2[nH]1 [NCGC00015647-18] | > 10 µM | > 20 µM | 19.89 µM | > 20 µM | 0.0174 µM | 0.01755 µM | 0.01339 µM | – | – | – | – | – | – | – | – | – | – | – | – | – | IC50/EC50, Hela CellCycMod PI S Phase (assay number 15) [5]: > 10 µM; IC50/EC50, WntCondMedia_bCatenin C2C12 (assay number 5) [6]: 0.2351 µM; IC50/EC50, hp70S6K1 LANCE (assay number 31) [7]: > 20 µM; IC50/EC50, WntCondMedia_Alk Phos C2C12 (assay number 6) [8]: 0.0434 µM; IC50/EC50, hKDR LANCE (assay number 32) [9]: 6.61 µM; IC50/EC50, VEGF_ADSC\ECFC Angio CD31 TubeArea (assay number 2) [10]: 0.1018 µM
2 | CCN(CC)CCNc1ccc(CO)c2sc3ccccc3c(=O)c12 [NCGC00016622-08] | > 10 µM | > 20 µM | > 20 µM | > 20 µM | 5.6786 µM | > 10 µM | > 10 µM | – | – | – | – | – | – | – | – | – | – | – | – | – | IC50/EC50, Hela CellCycMod PI Cell Number (assay number 18) [5]: 5.9199 µM; IC50/EC50, Hela CellCycMod PI S Phase (assay number 15) [5]: > 10 µM; IC50/EC50, WntCondMedia_bCatenin C2C12 (assay number 5) [6]: > 20 µM; IC50/EC50, hp70S6K1 LANCE (assay number 31) [7]: 17.07 µM; IC50/EC50, WntCondMedia_Alk Phos C2C12 (assay number 6) [8]: 2.6738 µM; IC50/EC50, hKDR LANCE (assay number 32) [9]: > 20 µM; IC50/EC50, VEGF_ADSC\ECFC Angio CD31 TubeArea (assay number 2) [10]: 8.3546 µM
3 | COC(=O)Nc1nc2ccc(C(=O)c3ccccc3)cc2[nH]1 [NCGC00016806-13] | > 10 µM | > 20 µM | > 20 µM | > 20 µM | 0.0761 µM | 0.08 µM | 0.0648 µM | – | – | – | – | – | – | – | – | – | – | – | – | – | IC50/EC50, Hela CellCycMod PI Cell Number (assay number 18) [5]: 0.0542 µM; IC50/EC50, WntCondMedia_bCatenin C2C12 (assay number 5) [6]: 1.7387 µM; IC50/EC50, hp70S6K1 LANCE (assay number 31) [7]: > 20 µM; IC50/EC50, WntCondMedia_Alk Phos C2C12 (assay number 6) [8]: 0.2454 µM; IC50/EC50, hKDR LANCE (assay number 32) [9]: 1.43 µM; IC50/EC50, VEGF_ADSC\ECFC Angio CD31 TubeArea (assay number 2) [10]: 0.3699 µM
4 | C=C(C)[C@H]1Cc2c(ccc3c2O[C@@H]2COc4cc(OC)c(OC)cc4[C@@H]2C3=O)O1 [NCGC00017358-15] | – | – | – | – | – | – | – | > 10 µM | > 20 µM | > 20 µM | > 20 µM | 0.3111 µM | 0.3108 µM | 0.2229 µM | 0.1532 µM | 2.9875 µM | > 20 µM | 0.2539 µM | > 20 µM | 0.0257 µM | Hela CellCycMod PI S Phase IC50/EC50 [5]: > 10 µM
5 | CCCOc1ccc2nc(NC(=O)OC)[nH]c2c1 [NCGC00018238-09] | – | – | – | – | – | – | – | > 10 µM | > 20 µM | > 20 µM | > 20 µM | 0.0622 µM | 0.0567 µM | 0.0775 µM | 0.0467 µM | 0.3653 µM | > 20 µM | 0.0881 µM | > 20 µM | 0.3276 µM | –
6 | CC(=O)[C@]1(O)Cc2c(O)c3c(c(O)c2[C@@H](O[C@H]2C[C@H](N)[C@H](O)[C@H](C)O2)C1)C(=O)c1ccccc1C3=O [NCGC00093976-08] | – | – | – | – | – | – | – | 0.5381 µM | > 20 µM | > 20 µM | > 20 µM | 0.0111 µM | > 10 µM | 0.6593 µM | 0.0142 µM | 0.1001 µM | > 20 µM | 0.5039 µM | > 20 µM | 0.0208 µM | Hela CellCycMod PI S Phase IC50/EC50 [5]: > 10 µM
7 | CCCCC1C(=O)N(c2ccccc2)N(c2ccc(O)cc2)C1=O (centres unmarked) [NCGC00094748-07] | – | – | – | – | – | – | – | 8.826 µM | > 20 µM | > 20 µM | > 20 µM | > 10 µM | > 10 µM | > 10 µM | 1.6628 µM | > 20 µM | > 20 µM | 4.9189 µM | > 20 µM | 3.2937 µM | Hela CellCycMod PI S Phase IC50/EC50 [5]: > 10 µM
8 | CCC1=C[C@@H]2CN(C1)Cc1c([nH]c3ccccc13)[C@@](C(=O)OC)(c1cc3c(cc1OC)N(C)[C@H]1[C@@](O)(C(=O)OC)[C@H](OC(C)=O)[C@]4(CC)C=CCN5CC[C@]31[C@@H]54)C2.O=C(O)C(O)C(O)C(=O)O.O=C(O)C(O)C(O)C(=O)O [NCGC00263568-01] | – | – | – | – | – | – | – | > 10 µM | > 20 µM | > 20 µM | > 20 µM | – | – | – | – | 0.0089 µM | > 20 µM | 0.0101 µM | > 20 µM | 0.0055 µM | –
